Legend:
BT-549 cells = test: Cell viability (MTT) assay, anti-proliferative activity; assay type: cell-based; settings: Homo sapiens, MTT, 24 h, mean ± SD
Protocol: BT-549 cells were seeded at a density of 5 × 10^4 cells/ml in a 96-well plate. Following a 24-h incubation period, the cells were exposed to various concentrations of different compounds for the specified durations. Cell viability was evaluated using an MTT assay.

[1] = target: T1, ATAD2 recombinant bromodomain protein (Homo sapiens, UniProt Q6PL18); test: ATAD2 enzymatic assay by TR-FRET technology; assay type: binding; settings: for IC50: mean ± SD, read-out: Kinase inhibitory activity (IC50, μM) ATAD2
T1 sequence (Q6PL18 980-1092 limits assumed): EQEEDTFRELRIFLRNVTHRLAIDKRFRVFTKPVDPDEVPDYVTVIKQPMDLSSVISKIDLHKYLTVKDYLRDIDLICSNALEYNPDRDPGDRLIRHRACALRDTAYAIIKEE
Protocol: The assay was performed by TR-FRET technology using recombinant bromodomain and BET Ligand[8]. The compounds were diluted with indicated folds in 5% DMSO in reaction buffer and 2 µl of the dilution was added to a 20 µl reaction so that the final concentration of DMSO is 0.5% in all of the reactions. The 20 µl reaction mixture consists of the ATAD2 recombinant bromodomain protein, the indicated amount of the inhibitor, ligand, and the reactive dyes. The reaction mixture was incubated for 3 h before reading the TR-FRET signal. Fluorescence signals for both the donor and acceptor dyes were measured using a Tecan Infinite M1000 plate reader. Binding experiments were performed in duplicate at each concentration and the data were analysed using GraphPad Prism.

melting point [°C]	IC50 (BT-549 cells) [µM]	increase in ATAD2 activity compared to 19d [1]	IC50 ([1]; TR-FRET) [µM]	ATAD2 inhibitory activity, in words ([1]; TR-FRET)	SMILES
211 to 213	11.3 ± 2.7	about a three-fold increase in activity	1.78 ± 0.39	–	Cc1ccc(C(=O)NC2CCCC2)cc1NC(=O)Cn1cnc2c(=O)n(C)c(=O)n(C)c21 [Compound 19e, N-cyclopentyl-3–(2-(1,3-dimethyl-2,6-dioxo-1,2,3,6-tetrahydro-9H-purin-9-yl)acetamido)-4-methylbenzamide]
195 to 197	25.1 ± 4.27	–	17.3 ± 3.92	–	Cn1c(=O)c2ncn(CC(=O)Nc3cccc(C(=O)NC4CCCCC4)c3)c2n(C)c1=O [Compound 19g, N-cyclohexyl-3–(2-(1,3-dimethyl-2,6-dioxo-1,2,3,6-tetrahydro-9H-purin-9-yl)acetamido)benzamide]
231 to 233	> 30	–	> 25	–	Cc1ccc(C(=O)N2CCS(=O)(=O)CC2)cc1NC(=O)Cn1cnc2c(=O)n(C)c(=O)n(C)c21 [Compound 15e, 2–(1,3-dimethyl-2,6-dioxo-1,2,3,6-tetrahydro-9H-purin-9-yl)-N-(5–(1,1-dioxidothiomorpholine-4-carbonyl)-2-methylphenyl)acetamide]
222 to 224	> 30	–	13.8 ± 2.57	–	Cn1c(=O)c2ncn(CC(=O)Nc3cccc(C(=O)NC4CC4)c3)c2n(C)c1=O [Compound 19a, N-cyclopropyl-3–(2-(1,3-dimethyl-2,6-dioxo-1,2,3,6-tetrahydro-9H-purin-9-yl)acetamido)benzamide]
257 to 258	> 30	–	14.8 ± 1.78	weak inhibitory activities against ATAD2	COc1ccc(C(=O)N2CCSCC2)cc1NC(=O)Cn1cnc2c(=O)n(C)c(=O)n(C)c21 [Compound 15c, 2–(1,3-dimethyl-2,6-dioxo-1,2,3,6-tetrahydro-9H-purin-9-yl)-N-(2-methoxy-5-(thiomorpholine-4-carbonyl)phenyl)acetamide]
189 to 190	> 30	–	> 25	–	Cn1c(=O)c2ncn(CC(=O)Nc3cccc(C(=O)NC4CCCCCC4)c3)c2n(C)c1=O [Compound 19j, N-cycloheptyl-3–(2-(1,3-dimethyl-2,6-dioxo-1,2,3,6-tetrahydro-9H-purin-9-yl)acetamido)benzamide]
265 to 267	> 30	–	> 25	–	Cn1c(=O)c2ncn(CC(=O)Nc3cccc(C(=O)N4CCOCC4)c3F)c2n(C)c1=O [Compound 15k, 2–(1,3-dimethyl-2,6-dioxo-1,2,3,6-tetrahydro-9H-purin-9-yl)-N-(2-fluoro-3-(morpholine-4-carbonyl)phenyl)acetamide]
278 to 279	28 ± 3.61	–	11.3 ± 2.79	–	COc1ccc(C(=O)N2CCOCC2)cc1NC(=O)Cn1cnc2c(=O)n(C)c(=O)n(C)c21 [Compound 15i, 2–(1,3-dimethyl-2,6-dioxo-1,2,3,6-tetrahydro-9H-purin-9-yl)-N-(2-methoxy-5-(morpholine-4-carbonyl)phenyl)acetamide]
207 to 208	17.9 ± 3.54	–	5.13 ± 0.72	–	Cn1c(=O)c2ncn(CC(=O)Nc3cccc(C(=O)NC4CCCC4)c3)c2n(C)c1=O [Compound 19d, N-cyclopentyl-3–(2-(1,3-dimethyl-2,6-dioxo-1,2,3,6-tetrahydro-9H-purin-9-yl)acetamido)benzamide]
–	–	–	411	–	Cc1cc2c(cc1N)n(C)c(=O)n2C [TS-1]
–	> 30	–	> 25	–	COc1ccc(C(=O)N2CCS(=O)(=O)CC2)cc1NC(=O)Cn1cnc2c(=O)n(C)c(=O)n(C)c21 [Compound 15f, 2–(1,3-dimethyl-2,6-dioxo-1,2,3,6-tetrahydro-9H-purin-9-yl)-N-(5–(1,1-dioxidothiomorpholine-4-carbonyl)-2-methoxyphenyl)acetamide]

SMILES	melting point [°C]	IC50 (BT-549 cells) [µM]	increase in ATAD2 activity compared to 19d [1]	IC50 ([1]; TR-FRET) [µM]	ATAD2 inhibitory activity, in words ([1]; TR-FRET)
Cn1c(=O)c2[nH]cnc2n(C)c1=O [TS-2, theophylline]	–	–	–	324	–
